pEC50, pIC50: −log10 of the molar value. Read-outs that look alike come from different tables or passages of the source.
What was measured:
Assay type in all cases: cell-based
K-Ras wild-type = K-Ras wild-type (Homo sapiens, UniProt P01116); assay: G-LISA Ras activation assay, 293H cells transfected with Ras wild-type, EGF-stimulated; settings: 1 hour treatment, 100 ng/ml EGF
Experimental: (§1) 293H cells were seeded in 6-wells at 0.6×10^6 cells per well and transfected next day with 5 μg of Ras wild-type, or G12C, G12D or G12V mutant DNA plasmid vector using transfection reagent Lipofectamine 3000. Next day cells were treated with 3.125-50 μM of Ras compounds for 1 hour. Wild-type transfected cells were subsequently treated with 100 ng/ml EGF for 2 minutes. Cells were washed once in ice-cold PBS, lysed in complete lysis buffer on ice, and processed by G-LISA according to Cytoskeleton protocol.
In-cell selectivity of the compounds presented herein against a specific K-ras mutant form can also be tested as shown in the following exemplary experiment. 293H cells were seeded in 6-wells and transfected next day with 5 μg of Ras wild-type, or G12C, G12D or G12V mutant DNA plasmid vector. Next day cells were treated with 3.125-50 μM of Ras compounds for 1 hour. Wild-type transfected cells were subsequently treated with 100 ng/ml EGF for 2 minutes. Cells were washed once in ice-cold PBS, lysed in complete lysis buffer on ice, and processed by G-LISA according to Cytoskeleton protocol. FIG. 1 depicts exemplary results.
as §1, with “In still further experiments, the inventors tested selected compounds in a G-LISA assay to compare IC50 values for wild-type and various mutant K-Ras (G12D, G12V) using the following general protocol: 293H” for “293H”

[1] = tested on: Erk phosphorylation in Panc1 (G12D) cells; assay: In-Cell Western Erk phosphorylation; settings: EC50, one hour treatment; read-out: In-Cell Western Erk phosporylation Panc1 (G12D)
Experimental: (§2) In-cell phosphorylation assays for Erk and Akt were performed on various of the compounds and exemplary results are shown in Table 3 below using […] and Panc10.05 cell lines for G12D K-ras mutants.
(§3) Cells are seeded in complete medium into black sided, clear-bottom 384-well microplates at 3000 cells/[…]/well. Plates are returned to 37° C. CO2 incubator for 18 hr. Drug is made as 200× in DMSO and diluted into medium to 10×. To each well is added 4 ul 10× test article or controls, and plates are returned to the incubator. Final assay DMSO concentration is 0.5%. After one hour, cells are fixed in formaldehyde, rinsed & permeabilized with triton X-100, and blocked with BSA/Goat serum blocking solution. Primary phospho-Akt and phospho-ERK antibodies are added and plates are incubated overnight at 4° C. Plates are rinsed with Tween-20 wash buffer and secondary antibody (Goat anti-rabbit, Thermofisher) is added. After 2 hours, plates are rinsed in Tween-20 wash buffer, and then PBS. Plates are imaged on the Celigo (Nexcelom) and cellular fluorescence is quantitated. Full inhibition of phospho-Akt is achieved with 1 uM BEZ235 (Sellekchem), while full inhibition of phospho-ERK is achieved with 1 uM MEK Inhibitor II Calbiochem). EC50 values are calculated using Graphpad Prism.

[2] = tested on: Erk phosphorylation in Panc10.05 (G12D) cells; assay: In-Cell Western Erk phosphorylation; settings: EC50, one hour treatment; read-out: In-Cell Western Erk phosporylation Panc10.05 (G12D)
Experimental: as §2, §3

[3] = tested on: Akt phosphorylation in Panc1 (G12D) cells; assay: In-Cell Western Akt phosphorylation; settings: EC50, one hour treatment; read-out: In-Cell Western Akt phosporylation Panc1 (G12D)
Experimental: as §2, §3

[4] = tested on: Akt phosphorylation in Panc10.05 (G12D) cells; assay: In-Cell Western Akt phosphorylation; settings: EC50, one hour treatment; read-out: In-Cell Western Akt phosporylation Panc10.05 (G12D)
Experimental: as §2, §3

[5] = tested on: pMEK and pErk in Panc10.05 (K-Ras G12D mutant) cells; assay: SDS-PAGE/blot detection of pMEK and pErk (FIG. 3); settings: serum-starved, 3.1 to 25 μM, 1 hour, then 100 ng/ml EGF 5 minutes
Experimental: The effect of contemplated compounds on cell signaling was tested in wild type and K-ras G12D mutant cells as follows: Cancer cell lines BxPC-3 (K-Ras wild-type), and Panc10.05 (K-Ras G12D mutant) were serum-starved 0/N before treatment with 3.1 to 25 μM of Ras compound A0837 for 1 hour before stimulation with 100 ng/ml EGF for 5 minutes. Cells were washed once in ice-cold PBS, lysed in complete lysis buffer on ice, and processed by SDS-PAGE under reducing conditions for the detection of pMEK and pErk. Membranes were stripped and re-probed for total MEK/Erk.

Sequence of K-Ras wild-type (P01116 1-188 isoform P01116-2): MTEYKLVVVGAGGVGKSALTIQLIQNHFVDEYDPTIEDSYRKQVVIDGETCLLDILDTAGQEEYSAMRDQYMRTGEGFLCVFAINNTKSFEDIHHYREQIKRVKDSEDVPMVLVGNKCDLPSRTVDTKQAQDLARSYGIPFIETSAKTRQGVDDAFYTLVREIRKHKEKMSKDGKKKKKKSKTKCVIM

`Cc1nc(C)c(C(=O)Nc2nc(-c3ccc4[nH]c(=O)[nH]c4c3)cs2)s1` [Compound 4562] gave an IC50 (K-Ras wild-type; Table 1, G-LISA, 293H transfected, read-out: IC50 (μM) Wild-type) of 0.5 µM, a pIC50 (K-Ras wild-type; Table 5, IC50, 293H transfected, read-out: G-LISA (wild type)) of 6.30 and a pEC50 [1] of 5.30. It also gave a pEC50 [2] of 5.40, a pEC50 [3] of 5.10 and a pEC50 [4] of 4.66. For the same compound, the “Signaling downstream of Ras (pMEK, pErk), mutant cell line (FIG. 3)” value [5] was “inhibited signaling downstream of Ras in the mutant cell line”.

From US10487078B2, “Compositions and methods of targeting mutant K-RAS” (NantBio, Inc., priority 2015, dated 2019)
